Target: T1, D-2-HAA halidohydrolase from Pseudomonas putida NCIB 12018 (0.15 M fraction) (Pseudomonas putida, UniProt Q52086)
T1 construct: Activity towards D-2-CPA was found exclusively in the 0.15 M fraction; endogenous in cells; host or cells: Pseudomonas putida NCIB 12018 (cell-free extract from French pressure cell, fractionated on DEAE-Sephacel, 0.15 M KCl fraction)
Test: Inhibition of dehalogenation activity of the isolated D-2-HAA halidohydrolase (0.15 M DEAE-Sephacel fraction)
Type: biochemical
Conditions: at up to 1 M concentration of the substance; substrate (DL-2-CPA) or reaction product (lactate)
Procedure: Samples of the cell-free extracts were submitted in duplicate to polyacrylamide gel electrophoresis (Hardman et al, Journal of General Microbiology, 1981, Volume 123, pages 117-128). One of each pair of gels, after electrophoresis was incubated in a buffer solution containing 50 mM D-2-CPA and the other of each pair was incubated in a buffer solution containing 50 mM L-2-CPA as described in the aforesaid Hardman et al reference.
A portion (25 ml) of the cell free extract from Pseudomonas putida NCIB 12018 was loaded onto DEAE-Sephacel column (45 mm diameter, 60 cm high) pre-equilibrated with 25 mM Tris/Sulphate buffer at pH 7.5. The column was eluted with portions (200 ml) of this buffer neat and then containing successively 0.15 M, 0.2 M and 0.5 M potassium chloride at a flow rate of 100 ml/hour.
Each of the four fractions was assayed for halidohydrolase activity as described in Step 2 using L-2-CPA and D-2-CPA as substrates.
The halidohydrolase in the 0.15 M fraction has a pH optimum for activity on D-2-CPA at 8.8-9.0. It has good activity in organic (Tris/Sulphate) and inorganic (bicarbonate/carbonate) buffers, and has activity in unbuffered media, e.g. distilled water, with the pH controlled at 8.8-9.0.
The enzymatic activity is not inhibited by up to 1 M DL-2-CPA or by the products of the reaction, i.e. chloride ion and lactate, at up to 1 M concentration.

T1 sequence (Q52086 whole entry): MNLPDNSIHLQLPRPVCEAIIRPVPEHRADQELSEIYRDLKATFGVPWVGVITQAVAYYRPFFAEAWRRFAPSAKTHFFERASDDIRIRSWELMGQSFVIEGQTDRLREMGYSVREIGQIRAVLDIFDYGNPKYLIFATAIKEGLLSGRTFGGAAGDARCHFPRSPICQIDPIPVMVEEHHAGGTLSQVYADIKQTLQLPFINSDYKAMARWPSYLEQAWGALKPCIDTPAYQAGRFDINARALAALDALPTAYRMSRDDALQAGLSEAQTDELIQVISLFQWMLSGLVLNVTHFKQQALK

SMILES | inhibition of the enzymatic activity
CC(Cl)C(=O)O (racemic) [DL-2-CPA, 2-chloropropionic acid] | not inhibited
CC(O)C(=O)O (centres unmarked) [lactate] | not inhibited
